Experiments:
Format in all cases: cell-based
[1] = tested on: Rhizopus sp.; assay: In vitro mycelial/spore growth on potato-sucrose-agar, percent disease control (RS, second column); conditions: read-out: % controlled, RS; for inhibition of growth at 50 ppm: Rhizopus sp.; for inhibition of growth at 200 ppm: Rhizopus
Method: (§1) The compounds of this invention were dissolved respectively in acetone in an amount equal to 10% of the final volume and then in purified water at the concentration of 100 ppm and 50 ppm.
(§2) Each of the solution was mixed with potato-sucrose-agar medium in 6" petri dish and one of the fungi was spotted at the center of the dish. The dish was incubated in growth room for several days. The percent disease control was derived from the radii of spore growth. The screening tests in vitro condition are well-known to those skilled in the art.
(§3) The following fungi were used for the screening.
9) Rhi. sp.; Rhizopus sp.

[2] = tested on: Fusarium moniliforme; assay: In vitro mycelial/spore growth on potato-sucrose-agar, percent disease control (FM); conditions: Fusarium verticillioides, Fusarium moniliforme, read-out: % controlled, FM
Method: as §1, §2, §3
8) Fu. mo.; Fusarium moniliforme

[3] = tested on: Botryosphaeri; assay: In vitro mycelial/spore growth on potato-sucrose-agar, percent disease control (BD); conditions: read-out: % controlled, BD
Method: as §1, §2, §3
4) Bo. do (Ma); Botryosphaeri

[4] = tested on: Phytophthora capsisi; assay: In vitro mycelial/spore growth on potato-sucrose-agar, percent disease control (PC); conditions: read-out: % controlled, PC
Method: as §1, §2, §3
2) Phy. ca.; Phytophthora capsisi

[5] = tested on: GC; assay: In vitro mycelial/spore growth on potato-sucrose-agar, percent disease control (GC); conditions: read-out: % controlled, GC; for inhibition of growth at 50 ppm: GC
Method: as §1, §2, §3

[6] = tested on: Botritis cinerea; assay: In vitro mycelial/spore growth on potato-sucrose-agar, percent disease control (BC); conditions: read-out: % controlled, BC
Method: as §1, §2, §3
10) Bo. ci.; Botritis cinerea

[7] = tested on: Pyricalaria oryzae; assay: In vitro mycelial/spore growth on potato-sucrose-agar, percent disease control (PO); conditions: read-out: % controlled, PO
Method: as §1, §2, §3
6) Py. or.; Pyricalaria oryzae

[8] = tested on: Rhizoctonia solani; assay: In vitro mycelial/spore growth on potato-sucrose-agar, percent disease control (RS, first column); conditions: read-out: % controlled, RS
Method: as §1, §2, §3
7) Rhi. so.; Rhizoctonia solani

Structure (SMILES) | inhibition of growth at 50 ppm [1] [%] | inhibition of growth at 200 ppm [1] [%] | inhibition of growth at 50 ppm [2] [%] | inhibition of growth at 200 ppm [2] [%] | inhibition of growth at 50 ppm [3] [%] | inhibition of growth at 200 ppm [3] [%] | inhibition of growth at 50 ppm [4] [%] | inhibition of growth at 200 ppm [4] [%] | inhibition of growth at 50 ppm [5] [%] | inhibition of growth at 200 ppm [5] [%] | inhibition of growth at 50 ppm [6] [%] | inhibition of growth at 200 ppm [6] [%] | inhibition of growth at 50 ppm [7] [%] | inhibition of growth at 200 ppm [7] [%] | inhibition of growth at 50 ppm [8] [%] | inhibition of growth at 200 ppm [8] [%]
Clc1ccc([Si]2(Cn3cncn3)CCCCC2)c(Cl)c1 [1-(2,4-dichlorophenyl)-1-(1H-1,2,4-triazole-1-yl)methyl-1-silacyclohexane] | 50 | 72 | 100 | 100 | 98 | 100 | 65 | 87 | 100 | 100 | 97 | 100 | 100 | 100 | 20 | 50
Clc1ccc([Si]2(Cn3cncn3)CCCC2)c(Cl)c1 [1-(2,4-dichlorophenyl)-1-(1H-1,2,4-triazole-1-yl)methyl-1-silacyclopentane] | 59 | 70 | 100 | 100 | 97 | 100 | 72 | 79 | 100 | 100 | 99 | 100 | 100 | 100 | 65 | 100
CC(n1cncn1)[Si]1(c2ccc(Cl)cc2Cl)CCCC1 (stereo not drawn) [1-(2,4-dichlorophenyl)-1-[α-(1H-1,2,4-triazole-1-yl)ethyl)-1-silacyclopentane] | 68 | 94 | 100 | 100 | 95 | 100 | 83 | 96 | 100 | 100 | 92 | 100 | 100 | 100 | 69 | 87
CC(n1cncn1)[Si]1(c2ccc(Cl)cc2Cl)CCCCC1 (stereo not drawn) [1-(2,4-dichlorophenyl)-1-[α-(1H-1,2,4-triazole-1-yl)ethyl]-1-silacyclohexane] | 54 | 60 | 100 | 100 | 100 | 100 | 64 | 100 | 100 | 100 | 100 | 100 | 100 | 100 | 100 | 100
Fc1ccc([Si]2(Cn3cncn3)CCCCC2)c(F)c1 [1-(2,4-difluorophenyl)-1-(1H-1,2,4-triazole-1-yl)methyl-1-silacyclohexane] | 53 | 61 | 100 | 100 | 100 | 100 | 67 | 89 | 100 | 100 | 100 | 100 | 100 | 100 | 41 | 61
Fc1ccc([Si]2(Cn3cncn3)CCCC2)c(F)c1 [1-(2,4-difluorophenyl)-1-(1H-1,2,4-triazole-1-yl)methyl-1-silacyclopentane] | 63 | 72 | 100 | 100 | 100 | 100 | 32 | 85 | 100 | 100 | 100 | 100 | 100 | 100 | 76 | 100
CC(n1cncn1)[Si]1(c2ccc(F)cc2F)CCCCC1 (stereo not drawn) [1-(2,4-difluorophenyl)-1-[α-(1H-1,2,4-triazole-1-yl)ethyl]-1-silacyclohexane] | 53 | 79 | 100 | 100 | 100 | 100 | 82 | 100 | 100 | 100 | 100 | 100 | 100 | 100 | 96 | 100
CC(n1cncn1)[Si]1(c2ccc(F)cc2F)CCCC1 (stereo not drawn) [1-(2,4-difluorophenyl)-1-[α-(1H-1,2,4-triazole-1-yl)ethyl]-1-silacyclopentane] | 78 | 87 | 100 | 100 | 100 | 100 | 45 | 94 | 100 | 100 | 100 | 100 | 100 | 100 | 79 | 100
c1ccc(-c2ccc([Si]3(Cn4cncn4)CCCCC3)cc2)cc1 [1-(4-biphenyl)-1-(1H-1,2,4-triazole-1-yl)methyl-1-silacyclohexane] | 72 | 94 | 100 | 100 | 100 | 100 | 92 | 100 | 100 | 100 | 100 | 100 | 100 | 100 | 71 | 80
c1ccc(-c2ccc([Si]3(Cn4cncn4)CCCC3)cc2)cc1 [1-(4-biphenyl)-1-(1H-1,2,4-triazole-1-yl)methyl-1-silacyclopentane] | 69 | 72 | 47 | 100 | 72 | 72 | 68 | 100 | 100 | 100 | 15 | 30 | 100 | 100 | 89 | 93
CC(n1cncn1)[Si]1(c2ccc(-c3ccccc3)cc2)CCCCC1 (stereo not drawn) [1-(4-biphenyl)-1-[α-(1H-1,2,4-triazole-1-yl)ethyl]-1-silacyclohexane] | 79 | 89 | 100 | 100 | 100 | 100 | 92 | 100 | 100 | 100 | 100 | 100 | 100 | 100 | 100 | 100
CC(n1cncn1)[Si]1(c2ccc(-c3ccccc3)cc2)CCCC1 (stereo not drawn) [1-(4-biphenyl)-1-[α-(1H-1,2,4-triazole-1-yl)ethyl]-1-silacyclopentane] | 86 | 90 | 97 | 100 | 100 | 100 | 80 | 100 | 100 | 100 | 100 | 100 | 100 | 100 | 100 | 100
